Laboratory results: patent US9422280B2, “N-substituted hetero-bicyclic compounds and derivatives for combating animal pests II” (BASF SE, priority 2012, dated 2016)

Assays:
Type in all cases: in vivo
[1] = system: Green Peach Aphid (Myzus persicae); assay: Green peach aphid foliar spray test on bell pepper; conditions: 120 h, sprayed bell pepper plants, aphid mortality after 5 days, read-out: mortality in comparison with untreated controls
Description: B.1 Green Peach Aphid (Myzus persicae)
(§1) The active compounds were formulated in cyclohexanone as a 10,000 ppm solution supplied in tubes. The tubes were inserted into an automated electrostatic sprayer equipped with an atomizing nozzle and they served as stock solutions for which lower dilutions were made in 50% acetone:50% water (v/v). A nonionic surfactant (Kinetic®) was included in the solution at a volume of 0.01% (v/v).
Bell pepper plants at the first true-leaf stage were infested prior to treatment by placing heavily infested leaves from the main colony on top of the treatment plants. Aphids were allowed to transfer overnight to accomplish an infestation of 30-50 aphids per plant and the host leaves were removed. The infested plants were then sprayed by an automated electrostatic plant sprayer equipped with an atomizing spray nozzle. The plants were dried in the sprayer fume hood, removed, and then maintained in a growth room under fluorescent lighting in a 24-hr photoperiod at about 25° C. and about 20-40% relative humidity. Aphid mortality on the treated plants, relative to mortality on untreated control plants, was determined after 5 days.

[2] = system: Cotton Aphid (Aphis gossypii); assay: Cotton aphid cotyledon dip test; conditions: 120 h, cotton cotyledons dipped, mortality counts after 5 days, read-out: mortality in comparison with untreated controls
Description: B.2 Cotton Aphid (Aphis gossypii)
The active compounds were formulated in 50:50 (vol:vol) acetone:water and 100 ppm Kinetica™ surfactant.
Cotton plants at the cotyledon stage (one plant per pot) were infested by placing a heavily infested leaf from the main colony on top of each cotyledon. The aphids were allowed to transfer to the host plant overnight, and the leaf used to transfer the aphids was removed. The cotyledons were dipped in the test solution and allowed to dry. After 5 days, mortality counts were made.

[3] = system: Cowpea Aphid (Aphis craccivora); assay: Cowpea aphid spray test on potted cowpea plants; conditions: sprayed cowpea plants, population reduction assessed after 24, 72 and 120 hours, read-out: mortality in comparison with untreated controls
Procedure: B.3 Cowpea Aphid (Aphis craccivora)
The active compound is dissolved at the desired concentration in a mixture of 1:1 (vol:vol) distilled water:acetone. The test solution is prepared at the day of use.
Potted cowpea plants colonized with approximately 100-150 aphids of various stages were sprayed after the pest population has been recorded. Population reduction was assessed after 24, 72, and 120 hours.

[4] = system: Vetch Aphid (Megoura viciae); assay: Vetch aphid broad bean leaf disk microtiter test; conditions: foliar, 120 h, sprayed broad bean leaf disks, 5 days, read-out: mortality in comparison with untreated controls
Procedure: B.4 Vetch Aphid (Megoura viciae)
For evaluating control of vetch aphid (Megoura viciae) through contact or systemic means the test unit consisted of 24-well-microtiter plates containing broad bean leaf disks.
The compounds were formulated using a solution containing 75% v/v water and 25% v/v DMSO. Different concentrations of formulated compounds were sprayed onto the leaf disks at 2.5 μl, using a custom built micro atomizer, at two replications.
After application, the leaf disks were air-dried and 5-8 adult aphids placed on the leaf disks inside the microtiter plate wells. The aphids were then allowed to suck on the treated leaf disks and incubated at about 23±1° C. and about 50±5% relative humidity for 5 days. Aphid mortality and fecundity was then visually assessed.

[5] = system: Silverleaf Whitefly (bemisia argentifolii); assay: Silverleaf whitefly spray test on cotton plants; conditions: 72 h, sprayed cotton plants, whitefly adults, 3 days after treatment, read-out: mortality in comparison with untreated controls
Description: B.5 Silverleaf Whitefly (bemisia argentifolii)
as §1
Cotton plants at the cotyledon stage (one plant per pot) were sprayed by an automated electrostatic plant sprayer equipped with an atomizing spray nozzle. The plants were dried in the sprayer fume hood and then removed from the sprayer. Each pot was placed into a plastic cup and about 10 to 12 whitefly adults (approximately 3-5 days old) were introduced. The insects were collected using an aspirator and a nontoxic Tygon® tubing connected to a barrier pipette tip. The tip, containing the collected insects, was then gently inserted into the soil containing the treated plant, allowing insects to crawl out of the tip to reach the foliage for feeding. Cups were covered with a reusable screened lid. […] Mortality was assessed 3 days after treatment, compared to untreated control plants.

[6] = system: Boll Weevil (Anthonomus grandis); assay: Boll weevil insect diet microtiter test; conditions: 120 h, sprayed onto insect diet with eggs, egg and larval mortality after 5 days, read-out: mortality in comparison with untreated controls
Procedure: B.6 Boll Weevil (Anthonomus grandis)
For evaluating control of boll weevil (Anthonomus grandis) the test unit consisted of 24-well-microtiter plates containing an insect diet and 20-30 A. grandis eggs.
The compounds were formulated using a solution containing 75% v/v water and 25% v/v DMSO. Different concentrations of formulated compounds were sprayed onto the insect diet at 20 μl, using a custom built micro atomizer, at two replications.
After application, microtiter plates were incubated at about 23±1° C. and about 50±5% relative humidity for 5 days. Egg and larval mortality was then visually assessed.

[7] = system: Orchid Thrips (dichromothrips corbetti); assay: Orchid thrips floral-immersion test; conditions: dipped orchid flowers, adult thrips, 72 hours after treatment, read-out: mortality in comparison with untreated controls
Procedure: B.7 Orchid Thrips (dichromothrips corbetti)
Dichromothrips corbetti adults used for bioassay were obtained from a colony maintained continuously under laboratory conditions. For testing purposes, the test compound is diluted in a 1:1 mixture of acetone:water (vol:vol), plus 0.01% vol/vol Alkamuls® EL 620 surfactant.
Thrips potency of each compound was evaluated by using a floral-immersion technique. Plastic petri dishes were used as test arenas. All petals of individual, intact orchid flowers were dipped into treatment solution and allowed to dry. Treated flowers were placed into individual petri dishes along with about 20 adult thrips. The petri dishes were then covered with lids. All test arenas were held under continuous light and a temperature of about 28° C. for duration of the assay. After 3 days, the numbers of live thrips were counted on each flower, and along inner walls of each petri dish. The percentmortality was recorded 72 hours after treatment.

[8] = system: Rice Green Leafhopper (Nephotettix virescens); assay: Rice green leafhopper spray test on rice seedlings; conditions: sprayed rice seedlings, adults, after 72 hours, read-out: mortality in comparison with untreated controls
Procedure: B.8 Rice Green Leafhopper (Nephotettix virescens)
(§2) Rice seedlings were cleaned and washed 24 hours before spraying. The active compounds were formulated in 50:50 acetone:water (vol:vol), and 0.1% vol/vol surfactant (EL 620) was added. Potted rice seedlings were sprayed with 5 ml test solution, air dried, placed in cages and inoculated with 10 adults. Treated rice plants were kept at about 28-29° C. and relative humidity of about 50-60%. Percent mortality was recorded after 72 hours.

[9] = system: Rice Brown Plant Hopper (Nilaparvata lugens); assay: Rice brown plant hopper spray test on rice seedlings; conditions: sprayed rice seedlings, adults, after 72 hours, read-out: mortality in comparison with untreated controls
Procedure: B.9 Rice Brown Plant Hopper (Nilaparvata lugens)
as §2, with “(vol:vol)” for “(vol:vol),”

SMILES | mortality at 300 ppm [1] | mortality at 300 ppm [2] | mortality at 500 ppm [3] | mortality at 800 ppm [4] | mortality at 500 ppm [5] | mortality at 2500 ppm [6] | mortality at 500 ppm [7] | mortality at 500 ppm [8] | mortality at 500 ppm [9]
Clc1ccc(Cn2cccc3nc(Cl)nc2-3)cn1 [E1.8, 2-chloro-4-[(6-chloro-3-pyridyl)methyl]imidazo[4,5-b]pyridine] | ≥ 75% | ≥ 75% | ≥ 75% | ≥ 75% | ≥ 75% | > 75% | ≥ 75% | ≥ 75% | ≥ 75%
CSc1nc2cccn(Cc3ccc(Cl)nc3)c-2n1 [E1.4, 4-[(6-chloro-3-pyridyl)methyl]-2-methylsulfanyl-imidazo[4,5-b]pyridine] |  |  | ≥ 75% | ≥ 75% |  |  |  |  | 
FC(F)(F)c1nc2cccn(Cc3ccc(Cl)nc3)c-2n1 [E1.15, 4-[(6-chloro-3-pyridyl)methyl]-2-(trifluoromethyl)imidazo[4,5-b]pyridine] |  | ≥ 75% | ≥ 75% | ≥ 75% | ≥ 75% |  | ≥ 75% | ≥ 75% | ≥ 75%
